Assay results reported in patent US20260337212A1, “IP4-4,6 SUBSTITUTED DERIVATIVE COMPOUNDS FOR USE IN THE TREATMENT, INHIBITION OF PROGRESSION, AND PREVENTION OF ECTOPIC CALCIFICATION” (SANIFIT THERAPEUTICS, S.A., priority 2022, published 2026).

How the values were obtained:
[1] = In vitro inhibition of calcium phosphate crystallization in human plasma (spectrophotometric); type: biochemical; conditions: 0-100 μM, 1.5 mM phosphate, 12.5 mM calcium, pH 7.4, 30 min, rt, read-out: Relative Potency (EC50, inhibition of calcium phosphate crystallization)
Description: The in vitro efficacy of the IP4-4,6 substituted derivatives (e.g., Compounds 1 to 53) of the invention on the inhibition of calcium phosphate crystallization in human plasma samples was evaluated according to a spectrophotometric assay previously described in the art (Ferrer M, et al., Sci Rep 2017; 7:6858, doi:10.1038/s41598-017-07203-x).
A 96-well plate was employed. Plasma was spiked (1 volume of the IP4-4,6 substituted derivatives of the invention per 19 volumes of plasma) with increasing concentrations of the derivatives in the range of 0-100 μM. Plasma was then centrifuged at 10,000 g at rt and subsequently mixed with a mixture of 5 mM hydrogen phosphate and 41.67 mM calcium to attain final concentrations of 1.5 mM phosphate and 12.5 mM calcium, respectively. All reagent solutions were filtered, and pH adjusted to 7.4.
Crystallization of calcium phosphate was monitored spectrophotometrically for 30 min at rt by measuring the increments in absorbance at 550 nm using the Biotek Powerwave XS Microplate spectrophotometer (BioTek Instruments, Inc., Winooski, VT, US). The plate was incubated at rt in an orbital shaker and absorbance measured every 3 min.
Plasma crystallization was assessed based on slope measurement in the linear range between 6 and 24 min from plots of increase in absorbance versus logarithm of time. The efficacy of different myo-inositol phosphates derivatives in preventing in vitro formation of calcium phosphate crystals was assessed in human plasma samples using the slopes obtained between 6- and 24-min. Inhibition of crystallization was measured by comparing the slopes of the control sample (blank plasma) with those of samples containing the inhibitor as shown below: […]

[2] = tested on: interstitial cells from aortic human valves (VIC); assay: Calcification of interstitial cells from calcified human aortic valves (Alizarin Red); type: cell-based; conditions: 1, 3, 10, 30, 100 μM; 3 weeks osteodifferentiation media; FIG. 15
Description: Calcification was measured by Alizarin Red staining and quantified spectrophotometrically as relative calcification. Values are shown as dot plots with mean. A one-way ANOVA for parametric distributions (IP6) with DMS post-test statistical analysis was performed. For not normally distributed results (Compound 1, Compound 3, and Compound 6), a nonparametric one-way ANOVA (Kruskal-Wallis test) with Dunn's post-test was applied, p<0.05 was considered statistically significant.
The dose-response efficacy of IP4-4,6 derivatives in the treatment of calcified aortic human valves was analyzed using an in vitro model (Zabirnyk A, et al., Vasc Pharmacol 2019; 122-123, 106583, doi:10.1016/j.vph.2019.106583). The model evaluated the effects of IP6, Compound 1, Compound 3, and Compound 6 on the calcification of interstitial cells from aortic human valves (VIC).
Human calcified aortic valve leaflets were obtained during aortic valve replacement and were harvested. After the removal of the valve endothelial cells, VIC were isolated. The leaflets were placed in 30 mL of basic growth medium (DMEM), supplemented with 10% fetal bovine serum (FBS) and 50 μg/mL gentamycin with the addition of 1 mg/mL collagenase II. The cells were incubated overnight at 37° C. with 5% CO2. Next day, the digested tissue was homogenized by pipetting with a serological pipet and centrifuged at 300 g for 5 min and the supernatant carefully removed by aspiration.
The pellet was washed in 10 mL of fresh DMEM and centrifuged as described previously. The supernatant was removed by aspiration, the cell pellet was resuspended in basic growth media and seeded in […]. VIC were cultured at 37° C. and 5% CO2 with growth media changed twice a week until they reached ~90% confluency. Cells were passaged at ratio of 1:2, propagated and frozen. […]
Alizarin Red staining was performed to assess calcification. […] To quantify calcium accumulation, Alizarin Red staining was extracted and measured spectrophotometrically. […]

[3] = Rat calcinosis cutis/calciphylaxis model (vitamin D3 and FeCl3): skin plaque calcification; type: in vivo, Sprague Dawley rat; conditions: 60 mg/kg s.c. daily D1-D8; HC (vitamin D3 50,000 IU/kg), FeCl3 0.5 mg/kg
Description: The dose-response efficacy of IP4-4,6 derivatives in the prevention and treatment of calcinosis cutis and calciphylaxis (CUA) induced by vitamin D3 and FeCl3 in a rat model was used. The model evaluated the effects of Compound 27 and IP6 on the formation of calcified skin plaques in rats for a duration of 8 days. Animals were sensitized at low concentration (LC, 35,000 IU/kg) and high concentration (HC, 50,000 IU/kg) doses of vitamin D3. A FeCl3 solution (0.5 mg/kg) was used as challenger to induce the formation of skin plaques. All animals were weighed every day before treatment.
Eighty-six male Sprague Dawley (SD) rats (Envigo Corp., Huntingdon, GB) weighing approximately 250-300 g were used. The animals were fed with a standard LASQCdiet® Rod14-H diet (LASvendi, Soest, DE). The animals were divided in 8 groups, 6 to 12 animals per group, as follows:
The following solutions were prepared: (a) 17,500 IU/mL (LC) and 25,000 IU/mL (HC) vitamin D3 (cholecalciferol, Duphafral D3 1000; Zoetis Inc., Parsippany, NJ, US), (b) 0.3 mg/mL FeCl3 (FeCl3·6H2O, 99%, Scharlab S. L., Barcelona, E S), (c) 30 mg/mL IP6 (660 g/mol phytic acid, pH 6.5-7.7), and (d) 15, 30, and 50 mg/mL Compound 27 (754.45 g/mol free acid, pH 6.5-7.7). All solutions were prepared in a 0.9% (w/v) physiological saline NaCl medium. An application volume of 2 mL/kg was employed.
Group 1—Control (sham), 6 animals. Animals in group 1 were administered subcutaneously physiological saline (0.9% (w/v) NaCl solution daily from D1 to D3 in the interscapular space, and with one saline 0.9% injection at each of the two ventral sites in the thorax on D4. Animals in group 1 were not administered Vit D or FeCl3 solutions.
(§1) Group 2—Physiological saline solution low concentration (Vehicle LC): Vit D 35,000 IU/kg, 0.5 mg/kg FeCl3 solution, 10 animals. Vit D at dose 35,000 IU/kg was administered subcutaneously x 3 consecutive days (D1, D2, D3), and one 0.5 mg/kg FeCl3 injection at each of the two ventral sites in the thorax on D4. This group received a daily saline 0.9% s.c. treatment (D1 to D8).
(§2) Group 3—Compound 27 60 mg/kg LC: Vit D 35,000 IU/kg, 0.5 mg/kg FeCl3, 10 animals. Vit D at dose 35,000 IU/kg was administered subcutaneously x 3 consecutive days (D1, D2, D3), and one 0.5 mg/kg FeCl3 injection at each of the two ventral sites in the thorax on D4. This group received a daily Compound 27 s.c. treatment at 60 mg/kg dose (D1 to D8).
as §1, with “4—Physiological” for “2—Physiological”, “high” for “low”, “HC):” for “LC):”, “50,000” for “35,000”, “FeCl3, 12” for “FeCl3 solution, 10”
as §2, with “5—IP6” for “3—Compound 27”, “HC,” for “LC:”, “50,000” for “35,000”, “12” for “10”, “IP6” for “Compound 27”
as §2, with “6—Compound” for “3—Compound”, “30” for “60”, “HC,” for “LC:”, “50,000” for “35,000”, “12” for “10”
as §2, with “7—Compound” for “3—Compound”, “[…],” for “LC:”, “50,000” for “35,000”, “12” for “10”
Group 8—Compound 27 100 mg/kg HC, Vit D 50,000 IU/kg, 0.5 mg/kg FeCl3, 12 animals. […]

Compound | EC50 [1] [µM] | Inhibition of the calcification of VIC [2] | Skin plaque % inhibition of calcification [3] [%]
4,6-O-di(tetradecyl)-myo-inositol-1,2,3,5-tetrakis(phosphate) octasodium salt [Compound 3] | ≤ 5 | effective in inhibiting the calcification of VIC in vitro in a dose-response manner | 
4,6-O-dipentyl-myo-inositol-1,2,3,5-tetrakis(phosphate) octasodium salt [Compound 1] | ≤ 5 | effective in inhibiting the calcification of VIC in vitro in a dose-response manner | 
O=P([O-])([O-])O[C@@H]1[C@@H](OCCCCCO)[C@H](OP(=O)([O-])[O-])[C@H](OP(=O)([O-])[O-])[C@H](OP(=O)([O-])[O-])[C@H]1OCCCCCO.[Na+].[Na+].[Na+].[Na+].[Na+].[Na+].[Na+].[Na+] [Compound 6, 4,6-O-bis(5-hydroxypentyl)-myo-inositol-1,2,3,5-tetrakis(phosphate) octasodium salt] | ≤ 5 | effective in inhibiting the calcification of VIC in vitro in a dose-response manner | 
O=P(O)(O)O[C@H]1[C@H](OP(=O)(O)O)[C@@H](OP(=O)(O)O)[C@H](OP(=O)(O)O)[C@@H](OP(=O)(O)O)[C@H]1OP(=O)(O)O [IP6, phytic acid, reference compound] |  |  | 58.8 ± 14.4
